Laboratory results reported in article PMC5565203 (Journal of medicinal chemistry, 2015).
Entries after “also recorded” stand apart in the source; their conditions may differ.

How the values were obtained:
[1] = target: human Mcl-1 (Homo sapiens, UniProt Q07820); assay: FPA competition assay, displacement of FITC-Bak-BH3 peptide from Mcl-1; assay type: binding; details: for higher Mcl-1 Ki values compared to the corresponding four-atom linker analogs: three-atom linker compounds; for LE (ligand efficiency): binding to Mcl-1; for increased affinity for Mcl-1 compared to the initial fragment 2: four-atom linker compounds; for improvement in Mcl-1 affinity compared to the core fragment 3: compared to fragment 3
Chain of human Mcl-1 (Q07820 172-327): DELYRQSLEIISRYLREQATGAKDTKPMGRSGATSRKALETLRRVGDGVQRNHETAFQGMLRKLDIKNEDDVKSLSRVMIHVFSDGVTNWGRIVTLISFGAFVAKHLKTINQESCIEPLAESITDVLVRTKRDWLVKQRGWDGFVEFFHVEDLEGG

[2] = target: cellular Mcl-1 (Homo sapiens, UniProt Q07820); assay: Biotin streptavidin pull-down experiment in K562 cell lysates; assay type: binding; details: Western blot
Chain of cellular Mcl-1 (Q07820 whole entry): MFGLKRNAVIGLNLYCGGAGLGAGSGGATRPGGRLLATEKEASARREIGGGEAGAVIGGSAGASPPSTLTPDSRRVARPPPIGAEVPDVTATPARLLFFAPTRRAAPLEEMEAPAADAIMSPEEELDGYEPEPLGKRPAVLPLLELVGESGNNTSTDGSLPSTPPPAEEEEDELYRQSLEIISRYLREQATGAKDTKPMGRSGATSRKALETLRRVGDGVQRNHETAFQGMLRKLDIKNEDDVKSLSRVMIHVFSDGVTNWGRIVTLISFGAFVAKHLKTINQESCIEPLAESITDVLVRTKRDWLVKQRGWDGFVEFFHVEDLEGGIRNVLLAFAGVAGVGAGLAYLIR

## O=C(O)c1c(CCOc2cccc3ccccc23)c2cccc3c2n1CCC3 [Compound 17, 1-(2-(Naphthalen-1-yloxy)ethyl)-5,6-dihydro-4H-pyrrolo[3,2,1-ij]quinoline-2-carboxylic acid]
[1]
  higher Mcl-1 Ki values compared to the corresponding four-atom linker analogs: > 10 fold

## O=C(O)c1cc2cccc3c2n1CCS3 [Compound 3]
[1]
  LE (ligand efficiency): 0.39

## O=C(O)c1c(CCCOc2cccc3ccccc23)c2cccc3c2n1CCO3 [Compound 21, 6-(3-(Naphthalen-1-yloxy)propyl)-2,3-dihydro-[1,4]oxazino[2,3,4-hi]indole-5-carboxylic acid]
[1]
  increased affinity for Mcl-1 compared to the initial fragment 2: more than 2 orders of magnitude

## O=C(O)c1cc2cccc3c2n1CCC3 [Compound 4]
[1]
  LE (ligand efficiency): 0.35

## O=C(O)c1c(CCCOc2cccc3ccccc23)c2cccc3c2n1CCS3 [Compound 19, 6-(3-(Naphthalen-1-yloxy)propyl)-2,3-dihydro-[1,4]thiazino[2,3,4-hi]indole-5-carboxylic acid]
[1]
  increased affinity for Mcl-1 compared to the initial fragment 2: more than 2 orders of magnitude

## O=C(O)c1c(CCOc2cccc3ccccc23)c2cccc3c2n1CCO3 [Compound 18, 6-(2-(Naphthalen-1-yloxy)ethyl)-2,3-dihydro-[1,4]oxazino[2,3,4-hi]indole-5-carboxylic acid]
[1]
  higher Mcl-1 Ki values compared to the corresponding four-atom linker analogs: > 10 fold

## Cc1cc(OCCCc2c(C(=O)O)n3c4c(c(Cl)ccc24)CCC3)cc(C)c1Cl [Compound 34, 7-chloro-1-(3-(4-chloro-3,5-dimethylphenoxy)propyl)-5,6-dihydro-4H-pyrrolo[3,2,1-ij]quinoline-2-carboxylic acid]
[2]
  inhibition of biotin-MS-1 pulldown of cellular Mcl-1: blocks the interaction with biotin MS-1 in a dose-dependent manner; also recorded: inhibits binding of biotin-MS-1 to Mcl-1 in cell lysates

## CC1Cn2c(C(=O)O)cc3cccc(c32)S1 (stereo not shown) [Compound 2]
[1]
  LE (ligand efficiency): 0.38

## Cc1cc(OCCCc2c(C(=O)O)n3c4c(cccc24)SCC3)cc(C)c1Cl [Compound 30, 6-(3-(4-chloro-3,5-dimethylphenoxy)propyl)-2,3-dihydro-[1,4]thiazino[2,3,4-hi]indole-5-carboxylic acid]
[1]
  improvement in Mcl-1 affinity compared to the core fragment 3: 720 fold

## Cc1c(C(=O)O)n2c3c(cccc13)OCC2 [Compound 7, 6-Methyl-2,3-dihydro-[1,4]oxazino[2,3,4-hi]indole-5-carboxylic acid]
[1]
  LE (ligand efficiency): 0.41

## O=C(O)c1c(CCOc2cccc3ccccc23)c2cccc3c2n1CCS3 [Compound 16, 6-(2-(Naphthalen-1-yloxy)ethyl)-2,3-dihydro-[1,4]thiazino[2,3,4-hi]indole-5-carboxylic acid]
[1]
  higher Mcl-1 Ki values compared to the corresponding four-atom linker analogs: > 10 fold

## Cc1c(C(=O)O)n2c3c(cccc13)CCC2 [Compound 6, 1-Methyl-5,6-dihydro-4H-pyrrolo[3,2,1-ij]quinoline-2-carboxylic acid]
[1]
  LE (ligand efficiency): 0.35

## O=C(O)c1c(CCCOc2cccc3ccccc23)c2cccc3c2n1CCC3 [Compound 20, 1-(3-(Naphthalen-1-yloxy)propyl)-5,6-dihydro-4H-pyrrolo[3,2,1-ij]quinoline-2-carboxylic acid]
[1]
  increased affinity for Mcl-1 compared to the initial fragment 2: more than 2 orders of magnitude

## Cc1c(C(=O)O)n2c3c(cccc13)SCC2 [Compound 5, 6-Methyl-2,3-dihydro-[1,4]thiazino[2,3,4-hi]indole-5-carboxylic acid]
[1]
  LE (ligand efficiency): 0.41

## Cc1cc(OCCCc2c(C(=O)O)n3c4c(cccc24)SCC3)ccc1Cl [Compound 29, 6-(3-(4-Chloro-3-methylphenoxy)propyl)-2,3-dihydro-[1,4]thiazino[2,3,4-hi]indole-5-carboxylic acid]
[1]
  improvement in Mcl-1 affinity compared to the core fragment 3: 240 fold

## O=C(O)c1c(CCCOc2ccc3c(c2)CCCC3)c2cccc3c2n1CCS3 [Compound 28, 6-(3-((5,6,7,8-Tetrahydronaphthalen-2-yl)oxy)propyl)-2,3-dihydro-[1,4]thiazino[2,3,4-hi]indole-5-carboxylic acid]
[1]; compared to regioisomer 26 and 1-naphthyl analog 19
  reduction in affinity to Mcl-1: 3 fold
